Several values for one entry are separate records, joined by “and”; a condition that tells them apart may be missing. Equal values may be shown once. Where a name gives a salt, the structure may show the parent alone. One block for each molecule: values may come before it.
Tests used:
[1] = system: locomotor suppressant effects of A1 selective adenosine agonist CPA; assay: CNS activity: antagonism of locomotor suppressant effect of A1 agonist CPA in mice; type: in vivo, mouse (male Swiss-Webster)
Description: (§1) The procedure employs naive animals obviating the need for extensive training and precluding possible cumulative drug effects.
(§2) Suspensions are ultrasonicated for 3 minutes.

A1 adenosine receptor = molecular target: T1, A1 adenosine receptor (Rattus norvegicus, UniProt P25099); assay: Adenosine Receptor Binding--A1 Receptor Affinity (RBA1), [3H]-CHA, rat whole brain membranes; design: species or system rat (male Long-Evans); details: [3H]-CHA 1.0 nM, 25° C., one hour, pH 7.7; read-out: RBA-1 IC50 (adenosine A1 receptor affinity)
T1 construct: Whole brain minus cerebellum and brainstem from male Long-Evans rats (150-200 g) is homogenized; from tissue; host or cells: rat whole brain minus cerebellum and brainstem, membranes
T1 sequence (P25099 1-326): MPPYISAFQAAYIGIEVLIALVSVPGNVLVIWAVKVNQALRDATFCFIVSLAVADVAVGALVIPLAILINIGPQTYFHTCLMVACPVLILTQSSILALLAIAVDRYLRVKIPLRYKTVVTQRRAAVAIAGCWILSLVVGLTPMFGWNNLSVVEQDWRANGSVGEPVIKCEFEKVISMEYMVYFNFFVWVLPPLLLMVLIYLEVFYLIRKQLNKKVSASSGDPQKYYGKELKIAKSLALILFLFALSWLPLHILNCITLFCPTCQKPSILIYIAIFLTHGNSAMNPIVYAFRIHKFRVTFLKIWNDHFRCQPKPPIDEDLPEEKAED
Description: Adenosine Receptor Binding--A1 Receptor Affinity (RBA1)
Whole brain minus cerebellum and brainstem from male Long-Evans rats (150-200 g) is homogenized in 30 volumes of ice-cold 0.05M Tris-HCl buffer pH 7.7 using a Brinkman Polytron PT-10, (setting number 6 for 20 seconds) and centrifuged for ten minutes at 20,000×g (Sorvall RC-2), 4° C. The supernatant is discarded, and the pellet is resuspended and centrifuged as before. The pellet is resuspended in 20 ml Tris-HCl buffer containing two International Units/ml of adenosine deaminase (Sigma type III from calf intestinal mucosa), incubated at 37° C. for 30 minutes, then subsequently at 0° C. for ten minutes. The homogenate is again centrifuged, and the final pellet is resuspended in ice-cold 0.05M Tris-HCl buffer pH 7.7 to a concentration of 20 mg/ml original wet tissue weight and used immediately.
Tissue homogenate (10 mg/ml) is incubated in 0.05M Tris-HCl buffer pH 7.7 containing 1.0 nM [^3 H]-N6-cyclohexyladenosine ([^3 H]-CHA) with or without test agents in triplicate for one hour at 25° C. Incubation volume was 2 ml. Unbound [^3 H]-CHA is separated by rapid filtration under reduced pressure through Whatman glass fiber (GF/B) filters. The filters are rinsed three times with 5 ml of ice-cold 0.05M Tris-HCl buffer pH 7.7. The radio-labeled ligand retained on the filter is measured by liquid scintillation spectrophotometry after shaking the filters for one hour or longer on a mechanical shaker in 10 ml of Beckman Ready-Solv HP scintillation cocktail.
The Scatchard plot is calculated by linear regression of the line obtained by plotting the amount of radioligand bound (pmoles/gram of tissue) versus [formula] Since the amount of radioligand bound is a small fraction of the total amount added, free radioligand is defined as the concentration of (nM) of radioligand added to the incubation mixture. The Hill coefficient is calculated by linear regression of the line obtained by plotting the log of the bound radioligand vs the log of the [formula] The maximal number of binding sites (Bmax) is calculated from the Scatchard plot.

[2] = system: A1 and A2 adenosine receptor; details: disclosed by Hamilton et al, J. Med. Chem. (1985) 28: 1071; cited from earlier work
[3] = CNS activity: locomotor activity of antagonist alone in mice (reference control); type: in vivo, mouse (male Swiss-Webster); details: antagonist 10 mg/kg IP alone; CV-1808 experiment
[4] = system: locomotor suppressant effects of A2 selective agonist CV-1808; assay: CNS activity: antagonism of locomotor suppressant effect of A2 agonist CV-1808 in mice; type: in vivo, mouse (male Swiss-Webster); details: for Locomotor activity, % suppression (B, A2 agonist alone): CV-1808 8 mg/kg IP alone
Description: as §1, §2

A2 adenosine receptor = molecular target: T2, A2 adenosine receptor (Rattus norvegicus, UniProt P30543); assay: Adenosine Receptor Binding--A2 Receptor Affinity (RBA2), [3H]NECA, rat striatal membranes; design: species or system rat (Sprague-Dawley); details: [3H]NECA 4 nM, 50 nM N6-cyclopentyladenosine, 25° C., 60 minutes; read-out: RBA-2 IC50 (adenosine A2 receptor affinity)
T2 construct: Brains are thawed and then kept on ice while the striata are dissected out; tissue Pel-Freez (Rogers, Ark.); host or cells: rat striatum, membranes
Description: Adenosine Receptor Binding--A2 Receptor Affinity (RBA2)
The membrane suspension (5 mg/0.79 ml) contained sufficient MgCl2 and adenosine deaminase to give 10 mM and 0.1 units/ml, respectively, final concentration in the incubation.
[formula] where Y is cpm bound
T is cpm total binding without drug
S is cpm specific binding without drug
D is the concentration of drug and
K is the IC50 of the drug

T2 sequence (P30543 whole entry): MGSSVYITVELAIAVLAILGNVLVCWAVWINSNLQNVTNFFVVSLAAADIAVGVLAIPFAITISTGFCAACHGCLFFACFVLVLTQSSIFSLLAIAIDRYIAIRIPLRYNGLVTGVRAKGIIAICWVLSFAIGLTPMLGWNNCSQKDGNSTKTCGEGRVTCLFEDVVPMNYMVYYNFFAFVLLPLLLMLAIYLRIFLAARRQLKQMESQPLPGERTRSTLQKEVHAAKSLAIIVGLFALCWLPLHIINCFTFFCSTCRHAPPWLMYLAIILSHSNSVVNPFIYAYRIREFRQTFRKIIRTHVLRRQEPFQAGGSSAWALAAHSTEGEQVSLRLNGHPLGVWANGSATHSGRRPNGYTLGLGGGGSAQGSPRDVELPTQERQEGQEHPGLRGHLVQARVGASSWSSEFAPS

Molecule: OC[C@H]1O[C@@H](n2cnc3c(NC4CCCC4)ncnc32)[C@H](O)[C@@H]1O [CPA, N^6 -cyclopentyladenosine, reference compound]
Locomotor activity, % suppression (B, A1 agonist alone) ([1]; CPA 2 mg/kg IP alone): 90% and 94%

IC50 (A1 adenosine receptor): 6960 nM
Molecule: C=CCn1c(=O)c2nc(-c3ccc(S(=O)(=O)O)cc3)[nH]c2n(CC=C)c1=O [Example 2, 4-(2,3,6,7-Tetrahydro-2,6-dioxo-1,3-di-2-propenyl-1H-purine-8-yl)benzenesulfonic acid]

Molecule: 8-(4-sulfonylphenyl)-3,9-dihydro-1,3-bis(2-propenyl)-1H-purine-2,6-dione
A1 and A2 adenosine receptor binding activity (in words) [2]: having A1 and A2 adenosine receptor binding activity

IC50 (A1 adenosine receptor): 130 nM
Molecule: C=CCn1c(=O)c2nc(-c3ccc(Cl)cc3N)[nH]c2n(CC=C)c1=O [Example 1, 8-(2-Amino-4-chlorophenyl)-3,9-dihydro-1,3-bis(2-propenyl)-1H-purine-2,6-dione]
A1 and A2 adenosine receptor binding activity (in words) [2]: having A1 and A2 adenosine receptor binding activity

Molecule: C=CCn1c(=O)c2[nH]c(-c3ccc(S(=O)(=O)NCCCN(C)C)cc3)nc2n(CC=C)c1=O [Example 3, N-[3-(dimethylamino)propyl]-4-(2,3,6,7-tetrahydro-2,6-dioxo-1,3-di-2-propenyl-1H-purine-8-yl)benzenesulfonamide monohydrochloride]
IC50 (A1 adenosine receptor): 260 nM

IC50 (A2 adenosine receptor): 3500 nM | IC50 (A1 adenosine receptor): 9 nM
Molecule: C=CCn1c(=O)c2[nH]c(C3CCCC3)nc2n(CC=C)c1=O [Example 4, 8-Cyclopentyl-3,7-dihydro-1,3-bis(2-propenyl)-1H-purine-2,6-dione]
Locomotor activity, % suppression (A, antagonist alone) [3]: 18% | % Reversal (B - C) ÷ B × 100, against CV-1808 (A2) ([4]; antagonist 10 mg/kg, CV-1808 8 mg/kg, IP): 8% | Locomotor activity, % suppression (C, agonist + antagonist) ([4]; antagonist + CV-1808 8 mg/kg, IP, antagonist 10 mg/kg): 57% | Reversal Rating A2 (against CV-1808) ([4]; paired t-test of B and C): N (if the data are insignificant (p>0.05) then the dose effect is given a rating of "N") | Locomotor activity, % suppression (C, agonist + antagonist) ([1]; antagonist 10 mg/kg + CPA 2 mg/kg, IP): 16% | % Reversal (B - C) ÷ B × 100, against CPA (A1) ([1]; antagonist 10 mg/kg, CPA 2 mg/kg, IP): 82% | Reversal Rating A1 (against CPA) ([1]; paired t-test of B and C): A (if the values are significantly different (p<0.05) from each other then the dose effect is given a reversal rating of "A")

Molecule: C=CCn1c(=O)c2[nH]c(-c3ccc(S(=O)(=O)NCCCN(C)C)cc3)nc2n(CC=C)c1=O [N-[3-(dimethylamino)propyl]-4-(2,3,6,7-tetrahydro-2,6-dioxo-1,3-2-propenyl-1H-purine-8-yl)benzensulfonamide]
A1 and A2 adenosine receptor binding activity (in words) [2]: having A1 and A2 adenosine receptor binding activity

Molecule: C=CCn1c(=O)c2nc(C)[nH]c2n(CC=C)c1=O [8-methyl-3,9-dihydro-1,3-bis(2-propenyl)-1H-purine-2,6-dione]
A1 and A2 adenosine receptor binding activity (in words) [2]: having A1 and A2 adenosine receptor binding activity

Molecule: Nc1nc(Nc2ccccc2)nc2c1ncn2[C@@H]1O[C@H](CO)[C@@H](O)[C@H]1O [CV-1808, 2-anilinoadenosine, reference compound]
Locomotor activity, % suppression (B, A2 agonist alone) ([4]; 8 mg/kg): 83% | Locomotor activity, % suppression (B, A2 agonist alone) ([4]; listed as CV-1810): 62%

From patent publication US4772607A, “Dialkenyl derivatives of xanthine, pharmaceutical compositions and methods of use therefor” (Warner-Lambert Company, priority 1986, dated 1988)
